Results reported in US9050341B2, “Methods of treating drug resistant and other tumors by administering 6,7-dialkoxy quinazoline derivatives” (NATCO PHARMA LIMITED, priority 2009, dated 2015).

Legend:
Assay in all cases: KinomeScan kinase profiling
Assay type in all cases: binding
NEK1 = biological target: T1, NEK1 (Homo sapiens, UniProt Q96PY6)
T1 construct: host or cells: T7 phage in E. coli host derived from BL21
Procedure, shortened: (§1)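 Kinases were expressed as T7 phage fusions in a BL21-derived E. coli host and the cleared lysates were used. Ligand beads were blocked with biotin and buffer (1% BSA, 0.05% Tween 20, 1 mM DTT). Compounds came from 40× DMSO stocks, and phage in the eluates was titred by qPCR.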

BRAF = biological target: T2, BRAF (Homo sapiens, UniProt P15056)
T2 construct: purchased Ambit Biosciences Corp (KinomeScan); host or cells: E. coli host derived from the BL21 strain, T7 phage
T2 sequence (P15056 whole entry): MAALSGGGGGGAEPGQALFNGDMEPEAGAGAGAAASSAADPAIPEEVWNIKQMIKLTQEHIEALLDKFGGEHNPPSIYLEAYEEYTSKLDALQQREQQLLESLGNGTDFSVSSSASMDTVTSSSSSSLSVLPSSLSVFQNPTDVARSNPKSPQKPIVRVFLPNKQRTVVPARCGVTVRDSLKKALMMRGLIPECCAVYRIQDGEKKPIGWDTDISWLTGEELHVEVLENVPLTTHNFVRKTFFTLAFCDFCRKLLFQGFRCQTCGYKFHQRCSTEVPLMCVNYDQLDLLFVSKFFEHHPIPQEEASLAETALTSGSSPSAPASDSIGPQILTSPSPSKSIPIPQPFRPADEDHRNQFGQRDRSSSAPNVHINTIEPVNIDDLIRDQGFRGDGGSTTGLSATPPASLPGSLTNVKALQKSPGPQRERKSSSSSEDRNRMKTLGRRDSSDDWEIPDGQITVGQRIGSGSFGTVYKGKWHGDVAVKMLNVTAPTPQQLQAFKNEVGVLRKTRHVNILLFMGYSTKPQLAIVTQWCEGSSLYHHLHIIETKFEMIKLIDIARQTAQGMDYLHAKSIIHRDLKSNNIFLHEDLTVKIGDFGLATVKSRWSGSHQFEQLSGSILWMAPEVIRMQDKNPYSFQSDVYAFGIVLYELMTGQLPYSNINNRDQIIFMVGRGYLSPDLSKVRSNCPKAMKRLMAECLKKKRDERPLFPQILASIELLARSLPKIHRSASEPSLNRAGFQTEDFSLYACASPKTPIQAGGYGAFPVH
Procedure, shortened: as §1

[1] = biological target: T3, RPS6KA5 (Kin.Dom.-2-C-terminal) (Homo sapiens, UniProt O75582)
T3 construct: RPS6KA5 (Kin.Dom.-2-C-terminal); host or cells: E. coli host derived from BL21, T7 phage lysate
T3 sequence (O75582 426-687 limits assumed): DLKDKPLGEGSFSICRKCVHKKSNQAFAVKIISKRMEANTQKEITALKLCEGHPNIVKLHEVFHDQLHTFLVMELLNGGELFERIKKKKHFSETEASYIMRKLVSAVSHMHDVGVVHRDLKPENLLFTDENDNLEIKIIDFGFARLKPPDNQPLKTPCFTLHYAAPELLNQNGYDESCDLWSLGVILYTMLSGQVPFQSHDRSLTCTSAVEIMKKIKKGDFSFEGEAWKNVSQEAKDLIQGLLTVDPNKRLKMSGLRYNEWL
Procedure, shortened: as §1

MYO3A = biological target: T4, MYO3A (Homo sapiens, UniProt Q8NEV4)
T4 construct: host or cells: T7 phage in E. coli host derived from BL21
Procedure, shortened: as §1

CDK7 = biological target: T5, CDK7 (Homo sapiens, UniProt P50613)
T5 construct: host or cells: T7 phage in E. coli (BL21-derived)
Procedure, shortened: as §1

CDKL2 = biological target: T6, CDKL2 (Homo sapiens, UniProt Q92772)
T6 construct: host or cells: T7 phage in E. coli (BL21-derived)
Procedure, shortened: as §1

TXK = biological target: T7, TXK (Homo sapiens, UniProt P42681)
T7 construct: purchased Ambit Biosciences Corp (KinomeScan); host or cells: E. coli host derived from the BL21 strain (T7 phage lysate)
Procedure, shortened: as §1

EPHB1 = biological target: T8, EPHB1 (Homo sapiens, UniProt P54762)
T8 construct: host or cells: E. coli host derived from BL21, T7 phage lysate
T8 sequence (P54762 18-984): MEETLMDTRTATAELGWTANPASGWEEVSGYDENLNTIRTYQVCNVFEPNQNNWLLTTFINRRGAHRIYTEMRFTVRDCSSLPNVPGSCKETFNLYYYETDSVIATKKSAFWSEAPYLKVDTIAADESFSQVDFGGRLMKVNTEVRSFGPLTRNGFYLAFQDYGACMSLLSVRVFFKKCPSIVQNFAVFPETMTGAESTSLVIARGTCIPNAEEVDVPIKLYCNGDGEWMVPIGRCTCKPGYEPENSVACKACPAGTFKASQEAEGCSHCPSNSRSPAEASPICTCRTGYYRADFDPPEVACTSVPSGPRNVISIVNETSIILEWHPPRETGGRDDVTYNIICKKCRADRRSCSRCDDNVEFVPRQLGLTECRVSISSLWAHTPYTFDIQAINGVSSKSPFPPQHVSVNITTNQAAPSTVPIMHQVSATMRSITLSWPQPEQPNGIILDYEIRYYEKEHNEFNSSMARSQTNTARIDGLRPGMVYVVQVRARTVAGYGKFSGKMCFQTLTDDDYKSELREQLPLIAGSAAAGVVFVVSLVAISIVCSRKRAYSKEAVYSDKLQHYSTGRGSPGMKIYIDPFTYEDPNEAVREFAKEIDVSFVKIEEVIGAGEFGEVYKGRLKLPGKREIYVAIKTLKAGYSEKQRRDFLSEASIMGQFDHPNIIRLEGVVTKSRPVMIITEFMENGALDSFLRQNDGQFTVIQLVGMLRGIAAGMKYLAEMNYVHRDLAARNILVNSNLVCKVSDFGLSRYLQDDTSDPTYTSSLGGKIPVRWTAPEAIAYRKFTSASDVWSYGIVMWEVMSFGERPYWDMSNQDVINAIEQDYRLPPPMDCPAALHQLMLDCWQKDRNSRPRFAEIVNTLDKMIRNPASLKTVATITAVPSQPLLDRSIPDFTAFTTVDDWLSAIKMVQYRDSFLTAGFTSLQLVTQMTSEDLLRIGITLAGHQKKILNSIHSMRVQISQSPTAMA
Procedure, shortened: as §1

RET = biological target: T9, RET (Homo sapiens, UniProt P07949)
T9 construct: host or cells: E. coli host derived from BL21, T7 phage lysate
T9 sequence (P07949 29-1114): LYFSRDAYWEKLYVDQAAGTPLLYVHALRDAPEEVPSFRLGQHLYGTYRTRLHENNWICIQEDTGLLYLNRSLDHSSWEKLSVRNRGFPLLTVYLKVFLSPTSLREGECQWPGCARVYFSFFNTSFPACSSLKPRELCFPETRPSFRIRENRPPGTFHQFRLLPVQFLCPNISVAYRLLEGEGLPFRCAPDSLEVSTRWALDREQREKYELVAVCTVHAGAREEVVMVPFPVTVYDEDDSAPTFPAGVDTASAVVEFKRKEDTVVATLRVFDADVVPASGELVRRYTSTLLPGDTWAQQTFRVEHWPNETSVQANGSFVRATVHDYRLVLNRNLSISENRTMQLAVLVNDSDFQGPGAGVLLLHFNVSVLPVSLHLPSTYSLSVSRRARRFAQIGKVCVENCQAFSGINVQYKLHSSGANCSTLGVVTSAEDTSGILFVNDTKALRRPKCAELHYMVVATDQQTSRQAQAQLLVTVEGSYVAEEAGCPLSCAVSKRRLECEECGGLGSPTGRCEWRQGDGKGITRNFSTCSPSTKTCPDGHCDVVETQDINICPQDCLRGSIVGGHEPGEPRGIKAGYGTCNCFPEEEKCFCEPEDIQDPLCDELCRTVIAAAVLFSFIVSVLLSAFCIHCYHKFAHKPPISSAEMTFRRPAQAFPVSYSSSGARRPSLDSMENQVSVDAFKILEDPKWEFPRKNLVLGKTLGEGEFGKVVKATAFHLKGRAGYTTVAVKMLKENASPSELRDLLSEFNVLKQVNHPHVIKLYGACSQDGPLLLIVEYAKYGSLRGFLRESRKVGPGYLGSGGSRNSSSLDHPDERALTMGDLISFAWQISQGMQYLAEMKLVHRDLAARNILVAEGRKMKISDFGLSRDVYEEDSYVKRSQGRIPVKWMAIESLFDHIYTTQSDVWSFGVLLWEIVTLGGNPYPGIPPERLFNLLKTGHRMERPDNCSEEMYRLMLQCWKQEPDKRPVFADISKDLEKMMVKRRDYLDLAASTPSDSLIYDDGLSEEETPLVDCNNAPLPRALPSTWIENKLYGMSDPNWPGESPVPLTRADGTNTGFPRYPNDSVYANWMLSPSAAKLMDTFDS
Procedure, shortened: as §1

FLT3 (D835Y) = biological target: T10, FLT3 (D835Y) (Homo sapiens, UniProt P36888, D835Y)
T10 construct: host or cells: E. coli host derived from BL21, infected with T7 phage
Procedure, shortened: as §1

VEGFR2 = biological target: T11, VEGFR2 (Homo sapiens, UniProt P35968)
T11 construct: purchased Ambit Biosciences Corp (KinomeScan); host or cells: E. coli host derived from the BL21 strain (T7 phage lysate)
Procedure, shortened: as §1

CDK8 = biological target: T12, CDK8 (Homo sapiens, UniProt P49336)
T12 construct: host or cells: T7 phage in E. coli (BL21-derived)
T12 sequence (P49336 whole entry): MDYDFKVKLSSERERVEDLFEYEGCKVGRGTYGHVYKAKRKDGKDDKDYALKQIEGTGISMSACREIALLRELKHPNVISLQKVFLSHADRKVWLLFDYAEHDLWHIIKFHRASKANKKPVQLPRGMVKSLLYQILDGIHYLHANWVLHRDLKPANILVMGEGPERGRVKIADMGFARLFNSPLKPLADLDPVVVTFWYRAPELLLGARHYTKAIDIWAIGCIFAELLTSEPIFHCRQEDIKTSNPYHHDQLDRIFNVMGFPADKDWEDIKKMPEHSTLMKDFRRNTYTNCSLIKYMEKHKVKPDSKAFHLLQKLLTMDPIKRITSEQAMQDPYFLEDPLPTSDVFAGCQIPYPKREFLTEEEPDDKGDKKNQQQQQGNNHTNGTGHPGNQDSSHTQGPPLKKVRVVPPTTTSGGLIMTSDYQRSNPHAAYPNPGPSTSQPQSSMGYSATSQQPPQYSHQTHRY
Procedure, shortened: as §1

PRKD3 = biological target: T13, PRKD3 (Homo sapiens, UniProt O94806)
T13 construct: purchased Ambit Biosciences Corp (KinomeScan); host or cells: E. coli host derived from BL21, infected with T7 phage
Procedure, shortened: as §1

FAK = biological target: T14, FAK (Homo sapiens, UniProt Q05397)
T14 construct: host or cells: E. coli host derived from BL21, T7 phage lysate
Procedure, shortened: as §1

AURKC = biological target: T15, AURKC (Homo sapiens, UniProt Q9UQB9)
T15 construct: purchased Ambit Biosciences Corp (KinomeScan); host or cells: E. coli host derived from the BL21 strain, T7 phage
Procedure, shortened: as §1

ABL1 (Y253F) = biological target: T16, ABL1 (Y253F) (Homo sapiens, UniProt P00519, Y253F)
T16 construct: host or cells: E. coli host derived from BL21 (T7 phage lysate)
Procedure, shortened: as §1

DAPK2 = biological target: T17, DAPK2 (Homo sapiens, UniProt Q9UIK4)
T17 construct: purchased Ambit Biosciences Corp (KinomeScan); host or cells: T7 phage in E. coli host derived from BL21
T17 sequence (Q9UIK4 whole entry): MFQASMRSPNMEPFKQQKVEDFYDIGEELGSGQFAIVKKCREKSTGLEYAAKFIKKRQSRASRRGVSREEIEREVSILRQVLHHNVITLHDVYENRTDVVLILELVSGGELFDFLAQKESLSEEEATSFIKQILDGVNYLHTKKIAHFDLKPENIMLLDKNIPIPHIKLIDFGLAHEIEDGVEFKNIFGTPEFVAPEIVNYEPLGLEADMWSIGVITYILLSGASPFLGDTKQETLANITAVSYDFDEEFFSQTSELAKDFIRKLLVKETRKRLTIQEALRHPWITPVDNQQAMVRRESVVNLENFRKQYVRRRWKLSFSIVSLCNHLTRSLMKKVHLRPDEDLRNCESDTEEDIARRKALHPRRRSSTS
Procedure, shortened: as §1

RET (V804L) = biological target: T18, RET (V804L) (Homo sapiens, UniProt P07949, V804L)
T18 construct: host or cells: E. coli host derived from BL21, T7 phage lysate
T18 sequence (P07949 29-1114 V804L): as the sequence (P07949 29-1114) above, with V776L counted along it
Procedure, shortened: as §1

PHKG2 = biological target: T19, PHKG2 (Homo sapiens, UniProt P15735)
T19 construct: host or cells: E. coli host derived from the BL21 strain, infected with T7 phage
T19 sequence (P15735 whole entry): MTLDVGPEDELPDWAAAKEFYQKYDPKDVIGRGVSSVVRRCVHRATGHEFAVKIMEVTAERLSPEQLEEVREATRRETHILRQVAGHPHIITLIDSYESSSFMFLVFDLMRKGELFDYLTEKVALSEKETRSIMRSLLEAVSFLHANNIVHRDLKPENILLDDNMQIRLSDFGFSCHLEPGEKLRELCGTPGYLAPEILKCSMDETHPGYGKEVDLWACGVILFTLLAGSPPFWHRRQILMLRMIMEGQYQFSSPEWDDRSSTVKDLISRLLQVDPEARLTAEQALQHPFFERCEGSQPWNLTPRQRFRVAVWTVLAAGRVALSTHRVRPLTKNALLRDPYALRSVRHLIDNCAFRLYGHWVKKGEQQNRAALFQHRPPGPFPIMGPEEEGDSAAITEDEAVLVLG
Procedure, shortened: as §1

ZAK = biological target: T20, ZAK (Homo sapiens, UniProt Q9NYL2)
T20 construct: host or cells: E. coli host derived from the BL21 strain, infected with T7 phage
Procedure, shortened: as §1

PIM1 = biological target: T21, PIM1 (Homo sapiens, UniProt P11309)
T21 construct: purchased Ambit Biosciences Corp (KinomeScan); host or cells: E. coli host derived from BL21, infected with T7 phage
Procedure, shortened: as §1

TAK1 = biological target: T22, TAK1 (Homo sapiens, UniProt O43318)
T22 construct: host or cells: E. coli host derived from the BL21 strain, T7 phage lysate
T22 sequence (O43318 whole entry): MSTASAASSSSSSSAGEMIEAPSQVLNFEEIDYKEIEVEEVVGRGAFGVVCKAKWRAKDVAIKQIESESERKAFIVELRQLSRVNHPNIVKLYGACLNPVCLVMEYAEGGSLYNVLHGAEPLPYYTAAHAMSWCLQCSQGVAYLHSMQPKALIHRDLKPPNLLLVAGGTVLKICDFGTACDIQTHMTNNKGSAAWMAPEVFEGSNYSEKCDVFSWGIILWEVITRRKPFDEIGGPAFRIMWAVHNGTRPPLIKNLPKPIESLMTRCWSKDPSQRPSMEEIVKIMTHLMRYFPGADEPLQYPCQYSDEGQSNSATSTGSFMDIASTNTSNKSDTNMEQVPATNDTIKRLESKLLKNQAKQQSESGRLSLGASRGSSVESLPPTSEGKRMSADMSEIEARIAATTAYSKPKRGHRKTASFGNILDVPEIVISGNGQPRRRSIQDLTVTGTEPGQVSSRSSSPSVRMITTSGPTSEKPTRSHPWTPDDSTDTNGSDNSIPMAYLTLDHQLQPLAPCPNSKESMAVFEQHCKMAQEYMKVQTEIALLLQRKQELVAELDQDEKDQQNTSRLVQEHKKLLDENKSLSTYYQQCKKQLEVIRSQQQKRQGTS
Procedure, shortened: as §1

SMILES: C#Cc1cccc(Nc2ncnc3cc(OC)c(OCCCN4CCOCC4)cc23)c1 [NRC-2694, N-(3-ethylnylphenyl)-7-methoxy-6-[3-(4-morpholinyl)propoxy]-4-quinazolinamine]
- % Ctrl @ 10000 nM (NEK1): 66 % Ctrl
- % Ctrl @ 10000 nM (BRAF): 81 % Ctrl
- % Ctrl @ 10000 nM [1]: 57 % Ctrl
- % Ctrl @ 10000 nM (MYO3A): 70 % Ctrl
- % Ctrl @ 10000 nM (CDK7): 0.55 % Ctrl
- % Ctrl @ 10000 nM (CDKL2): 67 % Ctrl
- % Ctrl @ 10000 nM (TXK): 39 % Ctrl
- % Ctrl @ 10000 nM (EPHB1): 72 % Ctrl
- % Ctrl @ 10000 nM (RET): 65 % Ctrl
- % Ctrl @ 10000 nM (FLT3 (D835Y)): 9.4 % Ctrl
- % Ctrl @ 10000 nM (VEGFR2): 95 % Ctrl
- % Ctrl @ 10000 nM (CDK8): 100 % Ctrl
- % Ctrl @ 10000 nM (PRKD3): 7.2 % Ctrl
- % Ctrl @ 10000 nM (FAK): 85 % Ctrl
- % Ctrl @ 10000 nM (AURKC): 47 % Ctrl
- % Ctrl @ 10000 nM (ABL1 (Y253F)): 23 % Ctrl
- % Ctrl @ 10000 nM (DAPK2): 61 % Ctrl
- % Ctrl @ 10000 nM (RET (V804L)): 81 % Ctrl
- % Ctrl @ 10000 nM (PHKG2): 59 % Ctrl
- % Ctrl @ 10000 nM (ZAK): 74 % Ctrl
- % Ctrl @ 10000 nM (PIM1): 39 % Ctrl
- % Ctrl @ 10000 nM (TAK1): 66 % Ctrl
